# According to ChEMBL document CHEMBL1201862, “PubChem BioAssay data set” (2004):
# The source made the active and inactive calls.
# What was measured:
# [1] = system: BJ; test: BJ-TERT fibroblast viability loss – cell-based, RAS-independent, luminescence, dose response (AID 1933); type: functional; conditions: Homo sapiens
# [2] = system: BJ; test: BJ-TERT-LT-ST fibroblast viability loss – cell-based, RAS-independent, luminescence, dose response (AID 1935); type: functional; conditions: Homo sapiens;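 note: BJ fibroblasts immortalized with TERT plus LT and ST oncogenes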
# [3] = viability of PTEN-deleted HCT116 cells – cell-based, HCT116 PTEN knockout, dose response (AID 1047); type: functional;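 note: HCT116 colon tumor cells with PTEN knocked out; cells exposed to compound for 60 hours before readout; potency for loss of cell viability measured by luminescence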
# [4] = system: BJ; test: growth inhibition of engineered Ras-driven BJ cells – cell-based, alamar blue fluorescence, cherrypicked samples, dose response (AID 2631); type: functional; conditions: Homo sapiens;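 note: confirmatory dose-response assay in RAS-dependent BJ fibroblasts engineered with TERT, LT and ST, with cytotoxicity read by fluorescence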
# [5] = alpha-synuclein stem-loop luciferase translation blockers – H4 neuroglioma cells, luminescence, confirmation (AID 1988); type: functional, cell-based
# [6] = luciferase reporter signal suppression in cells – H4 neuroglioma cells, luminescence, dose response (AID 1990); type: functional, cell-based
# [7] = system: BJ; test: cells; type: functional, cell-based; conditions: Homo sapiens
# [8] = DRD fibroblast viability loss – cell-based, non-viral oncogenic, luminescence, dose response (AID 1934); type: functional; conditions: Homo sapiens
# [9] = target: Melanocortin receptor 4 (Homo sapiens, UniProt P32245); type: functional, cell-based;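 note: Cell-based assay with luminescence read-out, confirmatory dose-response testing for agonist activity of biased ligands at MC4R; human U2OS cells with tagged receptor and beta-arrestin; potency of agonists that increase receptor coupling to beta-arrestin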
# [10] = Cytotoxicity screening for potential Inhibitors of Bacterial Capsule Biogenesis. [Related pubchem assays (depositor defined):AID488970]; type: functional
# [11] = viability of HCT116 lacking mutant beta-catenin – cell-based, human colon tumor, dose response (AID 1045); type: functional;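 note: HCT116 colon tumor cells with beta catenin knocked out; cells exposed to compound for 60 hours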
# [12] = Luminescence Cell-Based Dose Response HTS to Identify Inhibitors of 5'UTR Stem-Loop Driven Prion Protein mRNA Translation in H4 Neuroglioblastoma Cells. [Related pubchem assays: 1827 (Project Summary), 1813 (Primary HTS)]; type: functional
# [13] = target: Galanin receptor type 2 (Homo sapiens, UniProt O43603); test: Dose Response cell-based high-throughput screening assay to identify agonists of galanin receptor 2 (GALR2). [Related pubchem assays: 864 ]; type: functional
# [14] = NIH-3T3 fibroblast cytotoxicity, dose response, cytotoxicity control, cell-based, fluorescence, Alamar Blue, secondary assay (AID 2327); type: functional;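 note: NIH-3T3 mouse fibroblasts cultured with fluconazole at 8 µg/mL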
# [15] = target: T1, Alkaline phosphatase, tissue-nonspecific isozyme (Homo sapiens, UniProt P05186); test: activation of tissue-nonspecific alkaline phosphatase – biochemical, TNAP isozyme, human IAP uHTS hits, selectivity assay for human IAP activator project, dose response (AID 488886); type: functional;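 note: potency of compounds raising TNAP activity as a selectivity check on IAP activators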
# T1 sequence (P05186 whole entry): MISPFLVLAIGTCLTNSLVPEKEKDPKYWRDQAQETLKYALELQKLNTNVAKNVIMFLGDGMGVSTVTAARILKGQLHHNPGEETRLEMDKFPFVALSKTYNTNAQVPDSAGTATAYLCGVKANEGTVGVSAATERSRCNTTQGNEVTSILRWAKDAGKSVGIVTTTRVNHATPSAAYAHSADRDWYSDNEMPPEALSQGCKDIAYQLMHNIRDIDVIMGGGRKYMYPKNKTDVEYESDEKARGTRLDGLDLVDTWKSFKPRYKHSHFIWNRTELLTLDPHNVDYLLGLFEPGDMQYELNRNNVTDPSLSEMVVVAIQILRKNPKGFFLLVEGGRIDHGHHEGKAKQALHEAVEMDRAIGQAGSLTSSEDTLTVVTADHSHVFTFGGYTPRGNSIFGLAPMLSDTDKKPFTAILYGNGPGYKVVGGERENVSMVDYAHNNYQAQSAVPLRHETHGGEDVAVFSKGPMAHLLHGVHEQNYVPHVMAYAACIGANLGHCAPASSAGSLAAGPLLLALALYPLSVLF
# [16] = target: T2, Intestinal-type alkaline phosphatase (Homo sapiens, UniProt P09923); test: activation of human intestinal alkaline phosphatase – biochemical, luminescent, uHTS hits, set 2, dose response (AID 488817); type: functional;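 note: potency of activators that raise enzyme activity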
# [17] = fluconazole-exposed Candida albicans growth modulators – fluorescence, retest, confirmation (AID 2467); type: functional, cell-based
# [18] = HGIII-sPLA2 enzyme inhibition potency – biochemical, QFRET, IC50, dose response (AID 743457);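 note: green fluorescence rise as the enzyme cleaves BODIPY PC-A2 in liposomes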
# [19] = target: T2, Intestinal-type alkaline phosphatase; test: human intestinal alkaline phosphatase activators, dose response, biochemical, luminescence, uHTS hits (AID 463120); type: functional
# [20] = target: Intestinal-type alkaline phosphatase (Mus musculus, UniProt P24822); test: PubChem AID 488874; type: functional
# [21] = target: T3, Rac GTPase-activating protein 1 (Homo sapiens, UniProt Q9H0H5); test: blockers of MgcRacGAP-driven Rac1 GTP hydrolysis – biochemical, ADP Hunter fluorescence, primary and confirmatory, confirmation (AID 624330); type: functional
# T3 sequence (Q9H0H5 whole entry): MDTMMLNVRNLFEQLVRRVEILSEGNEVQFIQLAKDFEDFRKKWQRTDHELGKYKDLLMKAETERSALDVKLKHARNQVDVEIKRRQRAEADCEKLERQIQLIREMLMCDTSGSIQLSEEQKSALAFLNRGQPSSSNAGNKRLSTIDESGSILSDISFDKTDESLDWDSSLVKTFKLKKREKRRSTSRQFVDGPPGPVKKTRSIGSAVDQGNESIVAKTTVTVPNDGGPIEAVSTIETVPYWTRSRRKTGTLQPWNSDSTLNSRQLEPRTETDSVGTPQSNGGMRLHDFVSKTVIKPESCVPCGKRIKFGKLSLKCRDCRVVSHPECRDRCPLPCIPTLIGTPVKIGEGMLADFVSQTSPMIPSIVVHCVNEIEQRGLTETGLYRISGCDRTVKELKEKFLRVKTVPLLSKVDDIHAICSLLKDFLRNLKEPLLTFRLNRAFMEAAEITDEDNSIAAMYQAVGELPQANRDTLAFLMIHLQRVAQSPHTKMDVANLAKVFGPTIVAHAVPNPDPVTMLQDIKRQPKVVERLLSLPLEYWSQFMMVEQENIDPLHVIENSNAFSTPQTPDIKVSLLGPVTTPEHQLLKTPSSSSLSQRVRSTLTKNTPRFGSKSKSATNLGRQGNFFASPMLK
# [22] = target: G-protein coupled receptor 35 (Homo sapiens, UniProt Q9HC97); test: inhibition of zaprinast-stimulated GPR35 beta-arrestin translocation – imaging, U2OS, beta-arrestin-GFP, zaprinast agonist, primary screen (AID 2058); type: functional;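 note: antagonist potency meaning inhibition of agonist-induced arrestin redistribution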
# [23] = target: Trypsin (Sus scrofa, UniProt P00761); test: trypsin protease activity blockade – biochemical, quenched peptide fluorescence, cherry-pick, selectivity assay for Rce1 protease inhibitor project, dose response (AID 488789)
# [24] = target: CAAX prenyl protease 2 (Saccharomyces cerevisiae S288c, UniProt Q03530); type: biochemical
# CAAX prenyl protease 2, sequence (Q03530 whole entry): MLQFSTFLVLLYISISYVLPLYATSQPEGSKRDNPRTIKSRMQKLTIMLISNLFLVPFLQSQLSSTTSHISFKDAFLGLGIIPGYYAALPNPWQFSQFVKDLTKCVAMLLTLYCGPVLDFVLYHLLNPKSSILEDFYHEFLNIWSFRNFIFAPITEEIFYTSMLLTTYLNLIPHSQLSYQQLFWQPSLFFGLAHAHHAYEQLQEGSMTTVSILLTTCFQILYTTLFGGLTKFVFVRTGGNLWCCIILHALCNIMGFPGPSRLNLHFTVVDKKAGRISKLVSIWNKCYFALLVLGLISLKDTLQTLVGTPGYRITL
# T2 sequence (P09923 whole entry): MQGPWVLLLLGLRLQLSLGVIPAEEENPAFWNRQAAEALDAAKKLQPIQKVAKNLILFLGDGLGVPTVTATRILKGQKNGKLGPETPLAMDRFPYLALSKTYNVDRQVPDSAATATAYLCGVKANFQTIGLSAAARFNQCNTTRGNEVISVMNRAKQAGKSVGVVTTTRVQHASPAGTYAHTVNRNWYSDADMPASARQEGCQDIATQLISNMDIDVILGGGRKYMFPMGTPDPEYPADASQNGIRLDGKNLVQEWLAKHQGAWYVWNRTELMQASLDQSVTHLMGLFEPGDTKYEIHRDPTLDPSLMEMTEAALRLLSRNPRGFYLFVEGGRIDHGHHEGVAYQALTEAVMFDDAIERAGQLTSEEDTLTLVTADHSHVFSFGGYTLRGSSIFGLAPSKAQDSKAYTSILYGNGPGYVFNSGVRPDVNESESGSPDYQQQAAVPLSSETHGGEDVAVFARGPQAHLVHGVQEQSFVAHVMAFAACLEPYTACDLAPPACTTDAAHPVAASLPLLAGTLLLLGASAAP
# Melanocortin receptor 4, sequence (P32245 whole entry): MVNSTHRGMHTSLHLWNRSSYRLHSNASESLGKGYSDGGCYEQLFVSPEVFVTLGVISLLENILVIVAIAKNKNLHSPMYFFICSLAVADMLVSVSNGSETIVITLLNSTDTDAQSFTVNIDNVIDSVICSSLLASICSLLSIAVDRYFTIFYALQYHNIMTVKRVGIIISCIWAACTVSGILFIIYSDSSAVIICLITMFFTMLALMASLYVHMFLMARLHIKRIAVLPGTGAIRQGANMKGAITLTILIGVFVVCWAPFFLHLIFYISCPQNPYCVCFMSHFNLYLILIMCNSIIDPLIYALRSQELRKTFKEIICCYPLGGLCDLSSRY
# Galanin receptor type 2, sequence (O43603 whole entry): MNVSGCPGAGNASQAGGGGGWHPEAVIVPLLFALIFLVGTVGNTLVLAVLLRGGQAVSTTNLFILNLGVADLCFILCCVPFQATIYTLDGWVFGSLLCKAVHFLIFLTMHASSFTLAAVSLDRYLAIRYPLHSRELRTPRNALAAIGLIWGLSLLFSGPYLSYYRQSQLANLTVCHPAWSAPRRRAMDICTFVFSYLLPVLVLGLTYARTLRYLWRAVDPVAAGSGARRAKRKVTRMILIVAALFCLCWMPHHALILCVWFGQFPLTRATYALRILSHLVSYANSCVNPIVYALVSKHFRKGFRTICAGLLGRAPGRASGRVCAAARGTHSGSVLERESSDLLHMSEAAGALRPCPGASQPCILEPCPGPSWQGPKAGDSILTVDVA
# Trypsin, sequence (P00761 whole entry): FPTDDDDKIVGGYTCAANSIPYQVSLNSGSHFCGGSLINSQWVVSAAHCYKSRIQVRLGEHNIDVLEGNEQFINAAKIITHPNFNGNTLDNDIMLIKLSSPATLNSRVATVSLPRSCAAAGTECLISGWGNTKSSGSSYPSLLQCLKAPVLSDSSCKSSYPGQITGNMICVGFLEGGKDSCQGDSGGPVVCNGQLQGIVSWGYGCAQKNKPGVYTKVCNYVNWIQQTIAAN
# G-protein coupled receptor 35, sequence (Q9HC97 whole entry): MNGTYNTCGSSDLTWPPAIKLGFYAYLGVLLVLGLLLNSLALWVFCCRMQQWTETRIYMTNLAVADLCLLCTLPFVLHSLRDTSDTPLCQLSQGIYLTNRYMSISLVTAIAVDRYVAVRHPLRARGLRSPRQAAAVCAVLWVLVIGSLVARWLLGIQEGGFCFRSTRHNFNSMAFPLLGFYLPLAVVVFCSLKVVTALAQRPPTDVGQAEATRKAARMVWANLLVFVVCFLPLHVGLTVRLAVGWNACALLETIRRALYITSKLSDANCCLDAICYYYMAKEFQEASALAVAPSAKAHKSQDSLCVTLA
# Intestinal-type alkaline phosphatase (Mus musculus, UniProt P24822), sequence (P24822 whole entry): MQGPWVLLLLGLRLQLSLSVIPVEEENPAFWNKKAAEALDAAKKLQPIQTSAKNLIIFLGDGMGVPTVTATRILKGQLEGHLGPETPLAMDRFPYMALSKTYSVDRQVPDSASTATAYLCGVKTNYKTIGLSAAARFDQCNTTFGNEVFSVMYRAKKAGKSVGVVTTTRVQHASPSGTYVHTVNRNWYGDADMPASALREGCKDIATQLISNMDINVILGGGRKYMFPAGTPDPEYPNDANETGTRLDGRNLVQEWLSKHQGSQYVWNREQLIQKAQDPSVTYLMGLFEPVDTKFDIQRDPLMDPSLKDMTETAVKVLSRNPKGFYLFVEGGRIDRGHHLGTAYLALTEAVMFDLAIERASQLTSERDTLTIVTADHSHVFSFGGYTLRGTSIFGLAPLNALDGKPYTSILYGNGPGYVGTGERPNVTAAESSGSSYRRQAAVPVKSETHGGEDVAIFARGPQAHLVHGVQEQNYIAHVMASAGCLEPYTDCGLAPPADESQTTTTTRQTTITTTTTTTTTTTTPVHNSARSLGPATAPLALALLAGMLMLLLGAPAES
structure (smiles),measurement,setting,value
CCCOc1ccc(C(=O)C(CCC(CNCC)C(=O)c2ccc(OCCC)cc2)CNCC)cc1 (centres undefined),EC50,[1],2.57 µM (inconclusive)
same,EC50,[2],2.72 µM (inconclusive)
same,EC50,[3],1.76 µM (active)
same,EC50,[4],0.513 µM (active)
same,EC50,[5],6.08 µM (active)
same,EC50,[6],> 120 µM (not active)
same,EC50,[7],4.61 µM (active)
same,EC50,[8],3.31 µM (active)
same,EC50,[9],> 89.2 µM (inactive)
same,CC50,[10],3.18 µM (active)
same,EC50,[11],1.88 µM (active)
same,EC50,[12],8.92 µM (active)
same,EC50,[13],> 55.7 µM (not active)
O=C(NNC(=S)NC1CCCCC1)c1ccccc1Br,EC50,[14],21.7 µM (inconclusive)
same,EC50,[15],16.1 µM (active)
same,EC50,[16],14.9 µM (active)
same,EC50,[17],2.94 µM (active)
same,IC50,[18],> 122 µM (inactive)
same,EC50,[19],12.1 µM (active)
same,IC50,[20],50.3 µM (active)
Nc1[nH]c2cc([N+](=O)[O-])ccc2c1-c1ccccn1,IC50,[21],82.9 µM (active)
same,IC50,[22],0.787 µM (active)
COc1ccc(-c2cc3nc(C)c(CCC(=O)N4CCN(c5ccccn5)CC4)c(C)n3n2)c(OC)c1,AC50,[23],7.2 µM (active)
same,AC50,[24],> 100 µM (inactive)
